One data set has as its target T1, Pancreatic CCK Receptor (Rattus norvegicus, UniProt P30551).
T1 construct: homogenzing a gram of fresh rat pancreas tissue; from tissue; host or cells: fresh rat pancreas membranes
T1 sequence (P30551 1-444): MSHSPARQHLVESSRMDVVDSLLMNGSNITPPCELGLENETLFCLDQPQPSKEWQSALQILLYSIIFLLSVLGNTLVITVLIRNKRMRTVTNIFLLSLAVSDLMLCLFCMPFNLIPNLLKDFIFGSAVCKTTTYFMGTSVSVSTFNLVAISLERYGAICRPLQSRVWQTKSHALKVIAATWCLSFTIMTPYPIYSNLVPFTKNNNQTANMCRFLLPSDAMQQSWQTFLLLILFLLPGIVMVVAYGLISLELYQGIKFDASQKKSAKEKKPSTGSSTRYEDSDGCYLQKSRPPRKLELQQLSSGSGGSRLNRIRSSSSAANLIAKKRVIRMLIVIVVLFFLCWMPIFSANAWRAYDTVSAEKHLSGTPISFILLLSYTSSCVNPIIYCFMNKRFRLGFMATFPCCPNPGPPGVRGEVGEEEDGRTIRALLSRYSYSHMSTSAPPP
The data set is described as follows: Pancreatic cholecystokinin receptor binding (125I-CCK-8, rat pancreas membranes). The settings on record: for IC50: Pancreatic CCK Receptor Binding, rat pancreas, 125I-CCK-8, 37° C., 30 minutes; for effect on the 125I-CCK receptor binding assay: added protease inhibitors. The procedure: Pancreatic Cholecystokinin Receptor Binding Assay
Radiolabeled CCK-8 was purchased from New England Nuclear as ^125 I-CCK-8. Receptor binding was performed according to Innis and Snyder Proc. Natl. Acad. Sci., 77, 6917 (1980), with the minor modification of adding the additional protease inhibitors, phenylmethane sulfonyl fluoride (PMSF) and o-phenanthroline, which have no effect on the ^125 I-CCK receptor binding assay. All assays were performed in triplicate. Pancreatic receptor membranes were prepared by homogenzing a gram of fresh rat pancreas tissue in 30 ml TRIS-HCl (50 mM), pH 7.7 using a Brinkman polytron PT10 (Brinkman). The homogenate was washed twice and collected by centrifugation at 48,000× g at 4° C. for 10 minutes. The membranes were resuspended in assay buffer consisting of 5 mM dithiothieitol, 0.1 mM bacitiacin, 5 mM MgCl2 "H2 O, 0.2% heat denatured BSA, 1.2 mM PMSF and 0.5 mM O-phenanthroline at a concentration of 100 ml per gram of pancreas. […] The reaction mixtures were mixed briefly and placed in a 37° C. water bath with gentle shaking for 30 minutes. The reaction mixtures were then diluted with 4 ml of ice-cold TRIS buffer, pH 7.7, containing 1 mg/ml bovine serum albumin and immediately filtered in Watman G F/B filters. The filters were washed with 3×4 ml of the same buffer and the radioactivity associated with the filters was counted in a Beckman 5500 gamma counter. Broths were prepared by adding two volumes of acetone to original broth; supernatants were freeze dried after centrifugation at 1500 g for 10 minutes. The dried samples were then brought up in methanol/H2 O (1:1) and ready for assay.

A further data set concerns CCK-A receptors. To be noted: cited from earlier work.
The subject of another data set is CCK-B receptors. To be noted: cited from earlier work.
For data set [1] the following is noted: crude rat brain synaptosomal fraction (title of cited paper); cited from earlier work.
The test system of the next data set is stomach gastrin receptor. To be noted: cited from earlier work.
A further data set deals with gram-positive bacteria. To be noted: cited from earlier work.

The values that follow come from US5189050A, “Fermentation analogs of Virginiamycin M1 to treat panic and anxiety disorder” (Merck & Co., Inc., priority 1991, dated 1993).

Some results are limits rather than exact numbers.

The compound `CC1=C\C=C\[C@H](O)Cc2nc(co2)C(=O)N2CCC=C2C(=O)O[C@H](C(C)C)[C@H](C)/C=C/C(=O)NC\C=C\1` [Compound II] yielded an IC50 at Pancreatic CCK Receptor above 10 µM.
As for `CSCC[C@H](NC(=O)[C@H](Cc1ccc(O)cc1)NC(=O)[C@@H](N)CC(=O)O)C(=O)NCC(=O)N[C@@H](Cc1c[nH]c2ccccc12)C(=O)N[C@@H](CCSC)C(=O)N[C@@H](CC(=O)O)C(=O)N[C@@H](Cc1ccccc1)C(N)=O` [CCK-8d], the “affinity for CCK-A receptors” value in the data set with CCK-A receptors is listed as “lower affinity”.
As to `CSCC[C@H](NC(=O)[C@H](Cc1ccc(OS(=O)(=O)O)cc1)NC(=O)[C@@H](N)CC(=O)O)C(=O)NCC(=O)N[C@@H](Cc1c[nH]c2ccccc12)C(=O)N[C@@H](CCSC)C(=O)N[C@@H](CC(=O)O)C(=O)N[C@@H](Cc1ccccc1)C(N)=O` [CCK-8s, H-Asp-Tyr(SO3 H)-Met-Gly-Trp-Met-Asp-Phe-NH2], the “affinity for CCK-A receptors” value with CCK-A receptors is listed as “high affinity”. Besides, the “affinity for CCK-B receptors” value in the data set with CCK-B receptors was “high affinity”. Besides, in data set [1], the half-life entry is given as “less than 1 hour”.
For the compound `CC1=C\C=C\C(=O)Cc2nc(co2)C(=O)N2CCC=C2C(=O)O[C@H](C(C)C)[C@H](C)/C=C/C(=O)NC\C=C\1` [Compound III], on Pancreatic CCK Receptor, the half-inhibitory concentration (IC50) was above 10 µM.
As for `CSCC[C@H](NC(=O)[C@@H](N)Cc1c[nH]c2ccccc12)C(=O)N[C@@H](CC(=O)O)C(=O)N[C@@H](Cc1ccccc1)C(N)=O` [CCK-4], the “affinity for CCK-A receptors” value in the data set on CCK-A receptors was “lower affinity”. Besides, in the data set with CCK-B receptors, the “affinity for CCK-B receptors” value is “high affinity”. Besides, the “potency at stomach gastrin receptor” value in the data set with stomach gastrin receptor is recorded as “minimum fully potent CCK sequence”.
As to gastrin, the “affinity for CCK-A receptors” value with CCK-A receptors is “lower affinity”.
Regarding `O=S(=O)(F)Cc1ccccc1` [phenylmethane sulfonyl fluoride (PMSF), phenylmethane sulfonyl fluoride], the “effect on the 125I-CCK receptor binding assay” value at Pancreatic CCK Receptor is “no effect”.
At Pancreatic CCK Receptor, `CC1=C\[C@@H](O)CC(=O)Cc2nc(co2)C(=O)N2CCC=C2C(=O)O[C@H](C(C)C)[C@H](C)/C=C/C(=O)NC\C=C\1` [Virginiamycin M1] yielded an IC50 above 100 µM. The “antibacterial specificity and action” value in the data set on gram-positive bacteria is “generally specific for gram-positive bacteria and prevent cell multiplication”.
On to `c1cnc2c(c1)ccc1cccnc12` [o-phenanthroline], for which, on Pancreatic CCK Receptor, the “effect on the 125I-CCK receptor binding assay” value is given as “no effect”.
Regarding `CSCC[C@H](NC(=O)[C@H](Cc1c[nH]c2ccccc12)NC(=O)CCNC(=O)OC(C)(C)C)C(=O)N[C@@H](CC(=O)O)C(=O)N[C@@H](Cc1ccccc1)C(N)=O` [pentagastrin], the “affinity for CCK-B receptors” value in the data set with CCK-B receptors is listed as “high affinity”.
With `CC1=C\C=C\[C@@H](O)Cc2nc(co2)C(=O)N2CCC=C2C(=O)O[C@H](C(C)C)[C@H](C)/C=C/C(=O)NC\C=C\1` [Compound I], at Pancreatic CCK Receptor, the IC50 is above 10 µM.
